In ChEMBL document CHEMBL4043139, “Fluoro and pentafluorothio analogs of the antitumoral curcuminoid EF24 with superior antiangiogenic and vascular-disruptive effects” (Bioorg Med Chem, 2017):
Activity calls are given as the source filed them. The rule behind the calls is not given here.

Legend:
HT-29 [1] = assay: Cell cycle arrest in human HT-29 cells assessed as accumulation at sub-G1 phase at 1 uM after 24 hrs by propidium iodide staining based flow cytometric analysis (reference value: 0.9 +/- 0.1%); type: functional
HT-29 [2] = assay: Cell cycle arrest in human HT-29 cells assessed as accumulation at sub-G1 phase at 2.5 uM after 24 hrs by propidium iodide staining based flow cytometric analysis (reference value: 0.9 +/- 0.1%); type: functional
Gallus gallus [3] = assay: Vascular disruptive activity in 6 days post fertilized chicken egg assessed as area covered by blood vessels at 10 nmol administered topically measured after 6 hrs by light microscopic analysis relative to control; type: functional
[4] = Cytotoxicity against HDFa after 72 hrs by MTT assay; type: cell-based; details: Homo sapiens
HCT-116 = assay: Cytotoxicity against human HCT116 cells after 72 hrs by MTT assay; type: functional, cell-based; details: for IC50: HCT-116, 72 h
[5] = (§1) Cytotoxicity against human U87 cells after 72 hrs by MTT assay; type: functional, cell-based, U-87MG ATCC; details: U-87 MG
U-87MG ATCC [6] = assay: as §1; type: functional, cell-based
U-87MG ATCC [7] = assay: Anti-vasculogenic activity in human U87 cells assessed as reduction in formation of cord-like structures at 2.5 uM after 24 hrs by matrigel based light microscopic analysis; type: functional, cell-based
HT-29 [8] = assay: Cell cycle arrest in human HT-29 cells assessed as accumulation at G2/M phase at 2.5 uM after 24 hrs by propidium iodide staining based flow cytometric analysis (reference value: 15.5 +/- 0.5%); type: functional
HT-29 [9] = assay: Cell cycle arrest in human HT-29 cells assessed as accumulation at G1 phase at 5 uM after 24 hrs by propidium iodide staining based flow cytometric analysis (reference value: 68 +/- 0.9%); type: functional
HT-29 [10] = assay: Upregulation of cyclin B1 expression in human HT-29 cells at 1 to 2.5 uM after 24 hrs by Western blot analysis; type: functional, cell-based
KB-V1/Vbl = assay: (§2) Cytotoxicity against human KB-V1/Vbl cells after 72 hrs by MTT assay; type: functional, cell-based
[11] = as §2; type: functional, cell-based
HT-29 [12] = assay: Cell cycle arrest in human HT-29 cells assessed as accumulation at G2/M phase at 1 uM after 24 hrs by propidium iodide staining based flow cytometric analysis (reference value: 15.5 +/- 0.5%); type: functional
HT-29 [13] = assay: Cell cycle arrest in human HT-29 cells assessed as accumulation at S phase at 1 uM after 24 hrs by propidium iodide staining based flow cytometric analysis (reference value: 15.6 +/- 0.3%); type: functional
[14] = Cytotoxicity against human U87 cells assessed as cell viability at 10 nmol after 24 hrs by MTT assay relative to control; type: cell-based, U-87MG ATCC; details: read-out: Activity
HT-29 [15] = assay: Cell cycle arrest in human HT-29 cells assessed as accumulation at S phase at 2.5 uM after 24 hrs by propidium iodide staining based flow cytometric analysis (reference value: 15.6 +/- 0.3%); type: functional
HT-29 [16] = assay: Cell cycle arrest in human HT-29 cells assessed as accumulation at sub-G1 phase at 5 uM after 24 hrs by propidium iodide staining based flow cytometric analysis (reference value: 0.9 +/- 0.1%); type: functional
Gallus gallus [17] = assay: Vascular disruptive activity in 6 days post fertilized chicken egg chorioallantoic/vitelline membrane assessed as disruption of capillary reticulation at 10 nmol administered topically measured after 6 hrs by stereo-microscopic analysis; type: functional
Homo sapiens [18] = species on record: Homo sapiens; assay: Inhibition of NF-kappaB in human 518A2 cells assessed as reduction in p65 subunit expression at 1 to 2 uM after 24 hrs by Western blot analysis; type: cell-based
HT-29 [19] = assay: Cell cycle arrest in human HT-29 cells assessed as accumulation at S phase at 5 uM after 24 hrs by propidium iodide staining based flow cytometric analysis (reference value: 15.6 +/- 0.3%); type: functional
HT-29 [20] = assay: Cell cycle arrest in human HT-29 cells assessed as accumulation at G1 phase at 2.5 uM after 24 hrs by propidium iodide staining based flow cytometric analysis (reference value: 68 +/- 0.9%); type: functional
518A2 [21] = assay: Anti-migratory activity in human 518A2 cells assessed as wound closure at 250 nM after 24 hrs by light microscopic analysis; type: functional, cell-based
U-87MG ATCC [22] = assay: Anti-vasculogenic activity in human U87 cells assessed as reduction in formation of blood-vessel like tubular structures at 2.5 uM after 24 hrs by matrigel based light microscopic analysis; type: functional, cell-based
Gallus gallus [23] = assay: Vascular disruptive activity in 6 days post fertilized chicken egg chorioallantoic/vitelline membrane assessed as degradation of blood vessels at 10 nmol administered topically measured after 6 hrs by stereo-microscopic analysis; type: functional
HT-29 [24] = assay: Cell cycle arrest in human HT-29 cells assessed as accumulation at G2/M phase at 5 uM after 24 hrs by propidium iodide staining based flow cytometric analysis (reference value: 15.5 +/- 0.5%); type: functional
PANC-1 = assay: Cytotoxicity against human PANC1 cells after 72 hrs by MTT assay; type: functional, cell-based; details: for IC50: PANC-1, 72 h
518A2 [25] = assay: Cytotoxicity against human 518A2 cells after 72 hrs by MTT assay; type: functional, cell-based; details: for IC50: 518A2, 72 h
[26] = (§3) Cytotoxicity against human MCF7/Topo cells after 72 hrs by MTT assay; type: functional, cell-based
MCF7/Topo = assay: as §3; type: functional, cell-based
HT-29 [27] = assay: Cell cycle arrest in human HT-29 cells assessed as accumulation at G1 phase at 1 uM after 24 hrs by propidium iodide staining based flow cytometric analysis (reference value: 68 +/- 0.9%); type: functional
518A2 [28] = assay: Anti-migratory activity in human 518A2 cells assessed as wound closure at 250 nM after 48 hrs by light microscopic analysis (reference value: 100%); type: functional
HT-29 [29] = assay: Cytotoxicity against human HT-29 cells after 72 hrs by MTT assay; type: functional, cell-based; details: for IC50: HT-29, 72 h
DLD-1 = assay: Cytotoxicity against human DLD1 cells after 72 hrs by MTT assay; type: functional, cell-based; details: for IC50: DLD-1, 72 h
U-87MG ATCC [30] = assay: Anti-vasculogenic activity in human U87 cells assessed as reduction in formation of blood-vessel like tubular structures at 1.5 uM after 24 hrs by matrigel based light microscopic analysis; type: functional, cell-based
[31] = Cytotoxicity against human U87 cells assessed as effect on cell viability at 1 uM after 24 hrs by MTT assay; type: cell-based; details: u-87mg atcc
Danio rerio = species on record: Danio rerio; assay: Antiangiogenic activity in 72 hrs post fertilized zebra fish embryo harboring fli1a:EGFP assessed as area of subintestinal veins at 5 uM after 48 hrs by fluorescence microscopic analysis (reference value: 100%); type: functional
Gallus gallus [32] = assay: Vascular disruptive activity in 6 days post fertilized chicken egg chorioallantoic/vitelline membrane assessed as degradation of blood vessels at 10 nmol administered topically measured after 6 to 24 hrs by stereo-microscopic analysis; type: functional
HT-29 [33] = assay: Upregulation of cyclin B1 expression in human HT-29 cells at 2.5 to 5 uM after 24 hrs by Western blot analysis; type: functional, cell-based
U-87MG ATCC [34] = assay: Vascular disruptive activity in human U87 cells assessed as disruption of preformed tubular networks at 1 uM after 24 hrs by matrigel based light microscopic analysis; type: functional, cell-based
Homo sapiens [35] = species on record: Homo sapiens; assay: Inhibition of NF-kappaB in human 518A2 cells assessed as reduction in p65 subunit expression at 0.5 to 1 uM after 24 hrs by Western blot analysis; type: cell-based
U-87MG ATCC [36] = assay: Anti-vasculogenic activity in human U87 cells assessed as reduction in formation of cord-like structures at 1.5 uM after 24 hrs by matrigel based light microscopic analysis; type: functional, cell-based
U-87MG ATCC [37] = assay: Anti-vasculogenic activity in human U87 cells assessed as reduction in formation of small stray colonies at 2.5 uM after 24 hrs by matrigel based light microscopic analysis; type: functional, cell-based
Gallus gallus [38] = assay: Vascular disruptive activity in 6 days post fertilized chicken egg chorioallantoic/vitelline membrane at 10 nmol administered topically measured after 24 hrs by stereo-microscopic analysis; type: functional
Gallus gallus [39] = assay: Toxicity in 6 days post fertilized chicken egg at 10 nmol administered topically; details: in vivo, topical_or_ocular, 144 h
Gallus gallus [40] = assay: Vascular disruptive activity in 6 days post fertilized chicken egg chorioallantoic/vitelline membrane at 10 nmol administered topically measured up to 24 hrs by stereo-microscopic analysis; type: functional

CN1C/C(=C\c2c(F)cc(F)cc2F)C(=O)/C(=C/c2c(F)cc(F)cc2F)C1
Activity (HT-29 [1]): 5%
Activity (HT-29 [2]): 30.1%
Activity (Gallus gallus [3]): 40%
IC50 [4]: > 10000 nM
Activity (HCT-116): Dose-dependent effect
IC50 (HCT-116): > 10000 nM
IC50 [5]: > 10000 nM
Activity (U-87MG ATCC [6]): Dose-dependent effect
Activity (U-87MG ATCC [7]): inactive
Activity (HT-29 [8]): 37%
Activity (HT-29 [9]): 22.2%
Activity (HT-29 [10]): Active
Activity (KB-V1/Vbl): Dose-dependent effect
IC50 [11]: 820 nM
Activity (HT-29 [12]): 17.8%
Activity (HT-29 [13]): 18.3%
viability at 24 h, 10 nmol [14]: > 85%
Activity (HT-29 [15]): 7.4%
Activity (HT-29 [16]): 32.7%
Activity (Gallus gallus [17]): Active
inhibition (Homo sapiens [18]): Active
Activity (HT-29 [19]): 8.1%
Activity (HT-29 [20]): 25.5%
Activity (518A2 [21]): Active
Activity (U-87MG ATCC [22]): inactive
Activity (Gallus gallus [23]): Active
Activity (HT-29 [24]): 36.9%
Activity (PANC-1): Dose-dependent effect
IC50 (PANC-1): > 10000 nM
Activity (518A2 [25]): Dose-dependent effect
IC50 (518A2 [25]): > 10000 nM
IC50 [26]: 2100 nM
Activity (MCF7/Topo): Dose-dependent effect
Activity (HT-29 [27]): 58.9%
Activity (518A2 [28]): Active
Activity (HT-29 [29]): Dose-dependent effect
IC50 (HT-29 [29]): > 10000 nM
Activity (DLD-1): Dose-dependent effect
IC50 (DLD-1): > 10000 nM

O=C1/C(=C/c2ccccc2F)CNC/C1=C\c1ccccc1F
Activity (HT-29 [1]): 3.3%
Activity (U-87MG ATCC [30]): Active
Activity (HT-29 [2]): 12.9%
Activity (Gallus gallus [3]): 43%
Activity [31]: Non-Toxic
Activity (Danio rerio): 74%
IC50 [4]: 8500 nM
Activity (HCT-116): Dose-dependent effect
IC50 (HCT-116): 1500 nM
IC50 [5]: 1400 nM
Activity (U-87MG ATCC [6]): Dose-dependent effect
Activity (HT-29 [8]): 25.9%
Activity (HT-29 [9]): 35.8%
Activity (KB-V1/Vbl): Dose-dependent effect
IC50 [11]: 1100 nM
Activity (HT-29 [12]): 16.6%
Activity (Gallus gallus [32]): Active
Activity (HT-29 [13]): 21%
viability at 24 h, 10 nmol [14]: > 85%
Activity (HT-29 [33]): Active
Activity (HT-29 [15]): 22.3%
Activity (U-87MG ATCC [34]): Active
Activity (HT-29 [16]): 7.1%
inhibition (Homo sapiens [35]): Active
Activity (HT-29 [19]): 22.6%
Activity (HT-29 [20]): 38.9%
Activity (U-87MG ATCC [36]): Active
Activity (HT-29 [24]): 34.4%
Activity (PANC-1): Dose-dependent effect
IC50 (PANC-1): 1500 nM
Activity (518A2 [25]): Dose-dependent effect
IC50 (518A2 [25]): 1800 nM
IC50 [26]: 2200 nM
Activity (MCF7/Topo): Dose-dependent effect
Activity (HT-29 [27]): 59.1%
Activity (HT-29 [29]): Dose-dependent effect
IC50 (HT-29 [29]): 1600 nM
Activity (DLD-1): Dose-dependent effect
IC50 (DLD-1): 1300 nM

CN1C/C(=C\c2cc(F)c(F)cc2F)C(=O)/C(=C/c2cc(F)c(F)cc2F)C1
Activity (HT-29 [1]): 2.3%
Activity (U-87MG ATCC [37]): inactive
Activity (HT-29 [2]): 17%
Activity (Gallus gallus [3]): 44%
Activity [31]: Non-Toxic
Activity (Danio rerio): 39%
IC50 [4]: > 10000 nM
Activity (HCT-116): Dose-dependent effect
IC50 (HCT-116): 1500 nM
IC50 [5]: 3100 nM
Activity (U-87MG ATCC [6]): Dose-dependent effect
Activity (U-87MG ATCC [7]): inactive
Activity (HT-29 [8]): 23.2%
Activity (HT-29 [9]): 28.2%
Activity (HT-29 [10]): Active
Activity (KB-V1/Vbl): Dose-dependent effect
IC50 [11]: 720 nM
Activity (HT-29 [12]): 17.7%
Activity (HT-29 [13]): 18.7%
viability at 24 h, 10 nmol [14]: > 85%
Activity (HT-29 [15]): 13%
Activity (U-87MG ATCC [34]): Active
Activity (HT-29 [16]): 19.7%
inhibition (Homo sapiens [35]): Active
Activity (Gallus gallus [17]): Active
Activity (HT-29 [19]): 28.3%
Activity (HT-29 [20]): 46.8%
Activity (518A2 [21]): Active
Activity (U-87MG ATCC [22]): inactive
Activity (Gallus gallus [23]): Active
Activity (HT-29 [24]): 23.7%
Activity (PANC-1): Dose-dependent effect
IC50 (PANC-1): 1600 nM
Activity (518A2 [25]): Dose-dependent effect
IC50 (518A2 [25]): 1600 nM
IC50 [26]: 1600 nM
Activity (MCF7/Topo): Dose-dependent effect
Activity (HT-29 [27]): 61.3%
Activity (Gallus gallus [38]): inactive
Activity (Gallus gallus [39]): Non-Toxic
Activity (518A2 [28]): Active
Activity (HT-29 [29]): Dose-dependent effect
IC50 (HT-29 [29]): 840 nM
Activity (DLD-1): Dose-dependent effect
IC50 (DLD-1): 1800 nM

COc1cc(/C=C/C(=O)CC(=O)/C=C/c2ccc(O)c(OC)c2)ccc1O
Activity (Gallus gallus [40]): inactive
Activity (Gallus gallus [3]): inactive
